How the values were obtained:
[1] = system: Plasmodium spp.; settings: known; cited from earlier work
[2] = system: artemisinin-resistant plasmodium (Pf lek122); assay: malaria treatment in humanized mice infected with artemisinin-resistant plasmodium; type: in vivo; settings: i.p. on days 21-25, humanized NOG-SCID mice
Source text: AP2-PIPA1, which was designed in the same manner as in Example 1, was used to verify an inhibitory effect in vivo. Mice wherein red blood cells had been replaced with human red blood cells were infected with an artemisinin-resistant plasmodium and a therapeutic effect was examined in the thus-infected mice. The effect was verified in the case of administration of a PIPA alone and the case of combined administration with artemisinin.
Humanized mice were created by injecting human red blood cells (RBCs) into NOG-SCID mice. One milliliter of 50% HCT, A+ve red blood cells prepared with 0.5% Albumax and 3.1 mM hypoxanthine was injected into the NOG-SCID mice once daily for 3 weeks until 80% of the human red blood cells were established. The humanized mice were then infected with an artemisinin-resistant plasmodium (Pf lek122) by 4×10^7 RBCS infected with synchronized ring-stage parasites, and checked for parasitemia by determining a rate of Giemsa-stain positive RBCs from the infected mice. On days 21, 22, 23, 24, and 25, AP2-PIPA1 (AP2-1), artemisinin, or both were injected i.p. at the indicated dose.

[3] = biological target: dsDNA containing the target sequence TGCATG (SEQ ID NO: 1), AP2-Sc binding sequence; assay: binding affinity of PIPA to dsDNA containing the target sequence; set-up: species or system P. falciparum
Protocol: FIG. 1b is a schematic diagram showing a DNA fragment used in one embodiment of the present disclosure to analyze a binding strength of AP2-PIPA1 to its target sequence;
(§1) Next, a binding affinity of a PIPA to dsDNA containing the target sequence for the AP2-PIPA (FIG. 1b) was verified. As designed, the AP2-PIPA1 was bound to the target sequence with a high binding activity, that is, a Kd value of 4.0 nM (FIG. 1c). Consistent with previous reports of low off-target toxicity of a PIPA, the AP2-PIPA was not toxic in either mouse cell lines (Raw264.7 cells, NIH3T3 cells) or human cell lines (U937 cells, A549 cells) (FIG. 2a and FIG. 2b). These analysis results support safety of a PIPA at least in the dose range in vitro.

[4] = system: Raw264.7 cells, NIH3T3 cells; assay: cytotoxicity in mouse cell lines (DNA release, LDH activity in culture supernatant); type: cell-based; settings: mouse cell lines Raw264.7, NIH3T3; DNA release and LDH activity in culture supernatant
Protocol: as §1

[5] = system: U937 cells, A549 cells; assay: cytotoxicity in human cell lines (DNA release, LDH activity in culture supernatant); type: cell-based; settings: DNA release and LDH activity in culture supernatant
Protocol: as §1

[6] = toxicity of a single intraperitoneal administration in mice; type: in vivo
Protocol: Toxicity of a single intraperitoneal administration of AP2-PIPA1 was studied in mice. […] Observation of viability and general conditions, measurement of body weight, a hematology test, a blood chemistry test, and necropsy were performed as toxicity assessment indices. […] However, the value for each individual in these groups falls within a background value (34 to 58 IU/L) and thus the changes are determined to be due to physiological variation.
Furthermore, toxicity of a single intraperitoneal administration of the AP2-PIPA1 was studied in mice. […] Observation of viability and general conditions, measurement of body weight, a hematology test, a blood chemistry test, and necropsy were performed as toxicity assessment indices. […] However, the value for each individual in these groups falls within a background value (34 to 58 IU/L) and thus the changes are determined to be due to physiological variation.

[7] = toxicity of multiple administrations in mice; type: in vivo; settings: once daily for 7 days orally or intraperitoneally
Protocol: Mice received various doses of AP2-PIPA1 once daily for 7 days orally or intraperitoneally. On day 8, blood was collected and AST and ALT were measured. Significant difference tests were performed for the 3 mg/kg and 10 mg/kg dose groups relative to the control group for each route of administration.
Furthermore, toxicity of multiple administrations of the AP2-PIPA1 was studied in mice. Mice received various doses of the AP2-PIPA1 once daily for 7 days orally or intraperitoneally. On day 8, blood was collected and AST and ALT were measured (FIG. 5b). Significant difference tests were performed for the 3 mg/kg and 10 mg/kg dose groups relative to the control group for each route of administration.

[8] = system: P. falciparum 3D7 laboratory strain; assay: proliferation and life cycle of P. falciparum 3D7 at blood stage in vitro (Giemsa staining, FACS); type: cell-based; settings: for life cycle of P. falciparum (microscopic observation, Giemsa staining): 24 and 48 hours after infection; for transition to schizont stage / schizont formation: in vitro culture
Protocol: Then, an effect of the AP2-PIPA on proliferation of a P. falciparum 3D7 laboratory strain at a blood stage in vitro was examined. Human red blood cells were infected with P. falciparum and cultured in the presence or absence of the AP2-PIPA. Microscopic observation with Giemsa staining and quantitative count of parasites and their stages by FACS analysis were performed at 24 and 48 hours after the infection.

[9] = system: artemisinin-resistant plasmodium strain, various Plasmodium strains; assay: proliferation of artemisinin-resistant and other Plasmodium strains in human red blood cells in vitro; type: cell-based; settings: 72 hours after infection
Protocol: Plasmodia were cultured in red blood cells in the presence of various concentrations of a PIPA and, 72 hours later, parasitemia was assessed;
An effect of the AP2-PIPA on proliferation of an artemisinin-resistant strain in vitro was further examined (FIG. 4). Human red blood cells were infected with various Plasmodium strains and cultured in the presence or absence of the AP2-PIPA at various concentrations. Parasitemia was evaluated at 72 hours after the infection to verify a degree of proliferation of Plasmodium treated with various concentrations of the AP2-PIPA, and an IC50 value for the AP2-PIPA in each Plasmodium strain was calculated from the above results. As a result, the AP2-PIPA1 inhibited proliferation of the artemisinin-resistant plasmodium strain with a lower IC50.

[10] = system: Plasmodium berghei strain; assay: mouse infection experiment, parasitemia; type: in vivo; settings: intraperitoneal
Protocol: Furthermore, an effect of the AP2-PIPA1 was verified in a mouse infection experiment. Mice were infected with a Plasmodium berghei strain and received the AP2-PIPA1 intraperitoneally at each time point (day 1, day 2, day 3, day 4, day 5, day 6, and day 7) shown in the upper schematic diagram in FIG. 6. Blood was collected at 11 or 13 days after the infection to assess parasitemia. […] Multiple administrations of a high dose, i.e., 30 mg/kg are believed to cause toxicity.

[11] = single intraperitoneal administration 5, 10, 20 mg/kg, observed 7 days
[12] = 3 and 10 mg/kg vs control, blood on day 8
[13] = 30 mg/kg dose group, multiple administrations

For `Cc1nccnc1N1CCN(S(=O)(=O)c2ccc(-c3ccc(=O)[nH]n3)s2)CC1` [MBX-4055], the “proliferation of Plasmodium spp.” value [1] is listed as “known to inhibit proliferation of Plasmodium spp”.

In the case of `C[C@@H]1CC[C@H]2[C@@H](C)C(=O)O[C@@H]3O[C@@]4(C)CC[C@@H]1[C@]32OO4` [artemisinin, reference compound], the “therapeutic effect on malaria infection (parasitemia)” value (shortened to “therapeutic effect”) ([2]; administration alone) is reported as “an effect of artemisinin could not be observed”.

With `CC(=O)Nc1cc(C(=O)Nc2cc(C(=O)NCCC(=O)Nc3cn(C)c(C(=O)Nc4cc(C(=O)NCCCC(=O)Nc5cn(C)c(C(=O)Nc6cc(C(=O)Nc7cc(C(=O)NCCC(=O)Nc8cc(C(=O)NCCC(=O)NCCCN(C)C)n(C)c8)n(C)c7)n(C)c6)n5)n(C)c4)n3)n(C)c2)n(C)c1` [AP2-PIPA1] the Kd [3] was 4 nM, the “toxicity (cytotoxicity)” value [4] was “not toxic” and the “toxicity (cytotoxicity)” value [5] was “not toxic”. The AST activity ([6]; mouse, in vivo, ip, 10 mg/kg) was “an upward trend was observed”, the deaths [6, 11] was “No deaths were observed” and the “general conditions, weight change, hematology test, blood chemistry test, autopsy” value [6, 11] was “no changes that were considered to be abnormal were found”. The minimum lethal dose ([6]; single intraperitoneal administration, mice) was “greater than 20 mg/kg”, the “toxicity of multiple administrations” value ([7]; dose range examined) was “not prominently toxic” and the ALT [7, 12] was “no significant difference”. The AST [7, 12] was “no significant difference”, the “life cycle of P. falciparum (microscopic observation, Giemsa staining)” value ([8]; human red blood cells) was “arrested a life cycle of P. falciparum at a trophozoite stage” and the “morphological change (FACS analysis)” value ([8]; human red blood cells, at both 24 and 48 hours after infection) was “a morphological change was arrested at the trophozoite stage”. For the same molecule, the “transition to schizont stage / schizont formation” value [8] was “specifically inhibits transition to a schizont stage”, the “transition to schizont stage / schizont formation” value ([8]; listed as AP2-PIPA) was “strongly inhibit schizont formation” and the “IC50, proliferation (parasitemia)” value ([9]; artemisinin-resistant plasmodium strain) was “lower IC50”. The mouse death [10, 13] was “mouse death”, the parasitemia [10, 13] was “suppression of parasitemia” and the parasitemia ([10]; day 1 to day 7, blood at 11 or 13 days after infection) was “dose-dependent suppression of parasitemia”. For the same molecule, the “therapeutic effect” value ([2]; administration alone) was “a therapeutic effect on malaria infection was confirmed” and the “therapeutic effect” value ([2]; combined administration with artemisinin) was “a therapeutic effect on malaria infection was confirmed”.

For `CC(=O)Nc1cc(C(=O)Nc2cc(C(=O)NCCC(=O)Nc3cn(C)c(C(=O)Nc4cc(C(=O)NCCCC(=O)Nc5cn(C)c(C(=O)Nc6cc(C(=O)Nc7cc(C(=O)NCCC(=O)Nc8cc(C(=O)NCCC(=O)NCCCN(C)C)n(C)c8)n(C)c7)n(C)c6)n5)n(C)c4)n3)n(C)c2)n(C)c1` [AP2-PIPA2], the “life cycle of P. falciparum (microscopic observation, Giemsa staining)” value ([8]; human red blood cells) was “thought to be effective at a higher concentration range than that used in this experiment” and the “inhibitory effects on proliferation (parasitemia)” value ([9]; any of the Plasmodium strains) was “no inhibitory effects”.

Source: US20250250567A1, “PROTOZOA TRANSCRIPTION FACTOR INHIBITOR” (priority 2022, published 2025)
